From US20220242812A1, “SWELL1-LRRC8 COMPLEX MODULATORS” (Washington University, priority 2019, published 2022)
Like-named read-outs stand apart in the source and are kept apart here.

What was measured:
HFD-induced T2D mice = assay: Metabolic phenotyping (fasting glucose, GTT, ITT) in HFD-fed T2D mice; assay type: in vivo
Method: All compounds were dissolved in Kolliphor® EL (Sigma, #C5135).
Mice were fasted for 6 h prior to glucose tolerance tests (GTT). Baseline glucose levels at 0 min timepoint (fasting glucose, FG) were measured from blood sample collected from tail snipping using glucometer (Bayer Healthcare LLC). Either 1 g or 0.75 g D-Glucose/kg body weight were injected (i.p.) for lean or HFD mice, respectively and glucose levels were measured at 7, 15, 30, 60, 90 and 120 min timepoints after injection. For insulin tolerance tests (ITTs), the mice were fasted for 4 h. […] All mice and treatment groups were assessed blindly while performing experiments.

CYP 2C9 = target: T1, CYP 2C9 (Homo sapiens, UniProt P11712); assay: Cytochrome P450 inhibition assay, CYP 2C9; assay type: in vitro ADME; conditions: human liver microsomes
T1 construct: Human liver microsomes were diluted in Potassium phosphate buffer; tissue Charles River Laboratory (performed the study); host or cells: human liver microsomes

SWELL1 protein = SWELL1 protein (Mus musculus, UniProt Q80WG5); assay: Glucolipotoxic stress (palmitate + glucose) SWELL1 protein in 3T3-F442A adipocytes; conditions: 10 μM 96 h, 1 mM palmitate + 25 mM glucose
[1] = system: islets, glucose-stimulated insulin secretion; assay: Islet perifusion GSIS assay, islets from treated T2D mice; assay type: in vivo
Method: For patch-clamp studies involving primary mouse cells, the mice were anesthesized by injecting Avertin (0.0125 g/ml in H2O) followed by cervical dislocation. […] Perifusion buffer contained (in mM): 120 NaCl, 24 NaHCO3, 4.8 KCl, 2.5 CaCl, 1.2 MgSO4, 10 HEPES, 2.8 glucose, 27.2 mannitol, 0.25% w/v bovine serum albumin, pH 7.4 with NaOH (300 mOsm/kg). Perifusion buffer kept at 37° C. was circulated at 120 μI/min After 48 min of washing with 2.8 mM glucose solution for stabilization, islets were stimulated with the following sequence: 16 min of 16.7 mM glucose, 40 min of 2.8 mM glucose, 10 min of 30 mM KCl, and 12 min of 2.8 mM glucose. Osmolarity was matched by adjusting mannitol concentration when preparing solution containing 16.7 mM glucose. Serial samples were collected either every 1 or 2 min into 96 wells kept at 4° C. Insulin concentrations were further determined using commercially available ELISA kit (Mercodia). The area under the curve (AUC) for the high-glucose induced insulin release was calculated for time points between 50 to 74/84 min. At the completion of the experiments, islets were further lysed by addition of RIPA buffer and the amount of insulin was detected by ELISA.

Caco-2 cell monolayer = assay: Caco-2 permeability assay; assay type: in vitro ADME
Method: (§1) In vitro ADMET studies were performed at Charles River Laboratory as outlined below. For the Caco-2 permeability assay, the cells were cultured (DMEM, 10% FBS, 1% L-Glutamax and 1% PenStrep) for 21 days. HBSS was used as the transport buffer and the TEER measurements were taken before the start of the assay. Compounds were added apical side to determine apical to basolateral transport (A-B) and basal side to determine basolateral to apical transport (B-A). Samples (10 μL) were collected at time 0 and 2 h and diluted (5×) with transport buffer. After the quenching reaction, the samples were further diluted in MilliQ water for bioanalysis. The TEER measurements were carried out at the end of the assay and wells with significant decrease in post-assay TEER values were not included in the data and repeated again. The analyte levels (peak area ratios) were measured on apical (A) and basolateral (B) sides at To and T2h-A-B and B-A fluxes were calculated averaging 3 individual measurements. Apparent permeability (Papp, cm/sec) was calculated as dQ (flux)/(dt*area*concentration). The efflux ratio was calculated by Papp(B-A)/[…]. For the microsomal metabolic stability assay, the microsomes were diluted in potassium phosphate buffer to maintain at a final concentration of 0.5 mg/ml in the assay procedure. The compounds were diluted 10-fold in acetonitrile and incubated with the microsomes at 37° C. with gentle shaking. Samples were collected at different timepoints and quenched. The samples were mixed by vortexing for 10 min and centrifuged at 3100 rpm for 10 min at 4° C. The supernatant was diluted in water and further analyzed in LC/MS autosampler. Half-life (T1/2) was calculated by the formula 0.692/slope where slope is ln(% remaining relative to Tzero vs time). Intrinsic clearance was calculated using the (CLn1)=T112*1/initial concentration*mg prep/g liver*g liver/kg body weight. For the cytochrome P450 inhibition assay, the cofactors and substrate were mixed in Potassium phosphate buffer. A stock concentration of 10 mM compounds (in DMSO) were diluted 5-fold in acetonitrile and mixed with cofactor/substrate mixture (2×). Human liver microsomes were diluted in Potassium phosphate buffer for a final concentration (2×) of 0.2 mg/ml and the reaction was initiated by mixing the microsomes with the compound/cofactor/substrate mixture at 37° C. with gentle shaking. Samples were collected at To and T30 min timepoints and quenched. The samples were then centrifuged at 3100 rpm for 5 min at 5-10° C. and the supernatant was diluted in water and further analyzed in LC/MS autosampler. % inhibition was calculated (using peak area ratios) relative to zero inhibition (full activity) and no activity (full inhibition).

[2] = Caco-2 permeability assay; assay type: in vitro ADME; conditions: human, Caco-2; for Papp at 2 h: apparent permeability, read-out: Caco-2 10^−6 cm/s
Method: as §1

[3] = In vivo pharmacokinetics in mice; conditions: for bioavailability: male, C57/BL6, mouse, plasma, po, 5 mg/kg, AUCp.o./AUCi.v.; for AUCinf / Cmax / T-half: single dose 5 mg/kg
Method: Male C57/BL6 mice were used in the study and assessed for a single dose (5 mg/kg) administration. The compounds were prepared in Cremaphor for i.p. and p.o dose routes and in 5% ethanol, 10% Tween-20 and water mix for i.v. route at a final concentration of 1 mg/ml. […] The blood samples were collected in tubes with K2 EDTA anticoagulant and further processed to collect plasma by centrifugation at 3500 rpm at 5° C. for 10 min Samples were further processed in LC/MS to determine the concentration of the compounds. Non-compartmental analysis was performed to obtain the PK parameters using the PKPlus software package (Simulation Plus). The area under the plasma concentration-time curve (AUCint) is calculated from time 0 to infinity where the Cmax is the maximal concentration achieved in plasma and t112 is the terminal elimination half-life. Oral bioavailability was calculated as AUCorailAUC1v*100.

[4] = HFD 12-18 weeks, 5 mg/kg/day x 4 days, pre- vs post-treatment
[5] = HFD-induced T2D mice, 5 mg/kg i.p. 4-10 days
[6] = after 16 weeks of HFD feeding, vs vehicle

SMILES | IC50 (CYP 2C9) | Prevention of palmitate/glucose-induced SWELL1 protein reduction (SWELL1 protein) | Caco-2 permeability ranking (Caco-2 cell monolayer) | Papp at 2 h [2] | bioavailability [3] | AUCinf ([3]; Intraperitoneal) | Cmax ([3]; Intraperitoneal) | T-half ([3]; Intraperitoneal) | AUCinf ([3]; Intravenous) | Cmax ([3]; Intravenous) | T-half ([3]; Intravenous) | AUCinf ([3]; Oral) | Cmax ([3]; Oral) | T-half ([3]; Oral) | other results
CCCCC1(C2CCCC2)Cc2cc(OCCCCCC(=O)O)c(Cl)c(Cl)c2C1=O (centres unmarked) [SN-406, 6-((2-butyl-6,7-dichloro-2-cyclopentyl-1-oxo-2,3-dihydro-1H-inden-5-yl)oxy)hexanoic acid] | > 10 µM | entirely prevented | Higher | 1.93 ×10⁻⁶ cm/s | 48% | 18180 ng·h/mL | 4300 ng/mL | 1.809 h | 6532 ng·h/mL | 15130 ng/mL | 0.7689 h | 3131 ng·h/mL | 660.7 ng/mL | 2.058 h | Fasting blood glucose (HFD-induced T2D mice; [4]): markedly reduced; Glucose tolerance (HFD-induced T2D mice; [4]): improved; Insulin sensitivity based on HOMA-IR (HFD-induced T2D mice; HFD T2D mice, compared to SN071): trend toward improved; Glucose tolerance (HFD-induced T2D mice; HFD T2D mice, separate experiment, compared to SN071): significantly improved; Insulin secretion in perifusion GSIS ([1]; islets of HFD T2D mice, compared to SN071): significantly augmented; Caco-2 efflux ranking (Caco-2 cell monolayer): Not; efflux ratio at 2 h ([2]; read-out: Caco-2 efflux ratio B-A/A-B): 1.58; Plasma concentrations relative to ICl,SWELL inhibitory concentrations ([3]; 5 mg/kg i.p. dosing): transiently approach; Plasma concentrations relative to ICl,SWELL inhibitory concentrations ([3]; 5 mg/kg p.o. dosing): remain well below
CCCCC1(C2CCCC2)Cc2cc(OCCCC(=O)O)c(Cl)c(Cl)c2C1=O (centres unmarked) [SN-401, 4-((2-butyl-6,7-dichloro-2-cyclopentyl-1-oxo-2,3-dihydro-1H-inden-5-yl)oxy)butanoic acid] | < 10 µM | entirely prevented | Higher | 8.24 ×10⁻⁶ cm/s | 79% | 23030 ng·h/mL | 4367 ng/mL | 2.056 h | 5958 ng·h/mL | 5443 ng/mL | 1.428 h | 4682 ng·h/mL | 781 ng/mL | 2.585 h | Glucose tolerance (HFD-induced T2D mice; HFD-T2D mice, daily i.p. for 8 weeks (FIG. 31D)): striking effects; Fasting blood glucose (FG) (HFD-induced T2D mice; [5]): normalized; Glucose tolerance (GTT) (HFD-induced T2D mice; [5]): normalized; Insulin-tolerance (ITT) (HFD-induced T2D mice; [5]): markedly improved; ITT (HFD-induced T2D mice; after 16 weeks of HFD feeding (ITT at 18 weeks), vs vehicle): marked improvements; FG (HFD-induced T2D mice; [6]): marked improvements; GTT (HFD-induced T2D mice; [6]): marked improvements; Perifusion GSIS from isolated islets ([1]; HFD mice, 21 weeks HFD): significantly improved; Caco-2 efflux ranking (Caco-2 cell monolayer; Caco-2): Not; Caco-2 cell monolayer permeability (Caco-2 cell monolayer; in words): good
